Where a name gives a salt, the structure may show the parent alone.
The compounds below were run against T1, KHK (Homo sapiens, UniProt P50053) (assay: coupled enzyme assay for KHK activity). Settings: purified human recombinant KHK, PK/LDH coupled assay, A340 at 25° C., 0.1 mM ATP, 0.2 mM fructose; isoform (KHK-C or KHK-A) not given.
T1 construct: (His)6 tag (N); thrombin cleavage site (N); made in house; host or cells: E. coli BL-21 (DE3)
T1 sequence (P50053 1-298): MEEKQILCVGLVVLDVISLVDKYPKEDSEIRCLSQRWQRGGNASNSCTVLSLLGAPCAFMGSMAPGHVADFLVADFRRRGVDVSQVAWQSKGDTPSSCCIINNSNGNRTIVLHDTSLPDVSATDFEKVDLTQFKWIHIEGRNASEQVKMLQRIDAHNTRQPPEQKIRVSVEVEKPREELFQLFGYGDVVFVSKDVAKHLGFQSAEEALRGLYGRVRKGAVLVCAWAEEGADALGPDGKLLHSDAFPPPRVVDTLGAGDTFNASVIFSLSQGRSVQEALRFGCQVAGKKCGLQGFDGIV
Type: biochemical
From the text: Specific coupled enzyme screening assays were developed for KHK-C and KHK-A using recombinant proteins. Purified human recombinant KHK-C and KHK-A were produced using by expression in E. coli BL-21 (DE3) using IPTG induction as a His-tagged fusion proteins and purified using Ni-NTA chromatography on His-Trap FF columns. For KHK-C, the coding region from NCBI refseq number NM_006488 was inserted at the Nde I site of pET28a(+) vector, which puts it downstream from an amino-terminal (His)6 tag and a thrombin cleavage site. The same was done for KHK-A using the coding regions from NCBI refseq number NM_000221.2. The protein was expressed in BL-21 (DE3) using IPTG induction and purified using Ni-NTA (GE His Trap FF) column. The protein was washed with 100 column volumes, eluted with 3 column volumes, and dialyzed with HEPES, pH 7.4 buffers containing 20, 500, and 0 mM imidazole, respectively. The dialysate was concentrated by ultrafiltration (10kD MWCO) to >15 mg/mL protein. The protein prep was >95% pure on SDS-PAGE and the molecular weight was confirmed by relative mobility to be 33,730 Da (34,826 expected).
The assay uses the product of the KHK reaction, ADP, to drive a signal measured in real time for measuring the reaction rate. This consists of a 3-step, coupled-enzyme process by which pyruvate kinase (PK), which converts the ADP from the KHK reaction along with phosphoenolpyruvate (PEP) to ATP and pyruvate, respectively. The pyruvate is converted along with NADH to lactate and NAD+ by lactate dehydrogenase (LDH). The disappearance of NADH is measured kinetically by monitoring A340 at 25° C. for 15 minutes. The enzymatic assay was carried out in a total reaction volume of 200 μL containing 33 mM triethanolamine-HCl, pH 7.4, 6 mM MgCl2, 100 mM KCl, 0.1 mM ATP, 1.33 mM PEP, 0.3 mM NADH, 0.2-1.0 U of PK, 0.2-1.0 U of LDH, and 150-240 nM KHK-C or KHK-A (0.01-0.02 U). Fructose was added to initiate the reactions to 0.2 mM, except for the no fructose controls which utilized water. This high-throughput assay was used to identify inhibitors that have an IC50 value<1 μM for KHK-C and to confirm that those values for KHK-A were not more than 2-fold lower.

Compound	IC50
Cc1cccc(-n2ncc3ccc(NC(=O)[C@H](N)CN)cc32)c1 [Compound 14, (R)-2,3-diamino-N-(1-(m-tolyl)-1H-indazol-6-yl)propanamide dihydrochloride]	1.1 µM
Cc1cccc(-n2ncc3ccc(NC(=O)[C@H](C)N)cc32)c1 [Compound 6, (S)-2-amino-N-(1-(m-tolyl)-1H-indazol-6-yl)propanamide hydrochloride]	0.11 µM
Cc1cccc(-n2ncc3ccc(NC(=O)[C@@H](N)CCO)cc32)c1 [Compound 10, (S)-2-amino-4-hydroxy-N-(1-(m-tolyl)-1H-indazol-6-yl)butanamide hydrochloride]	0.4 µM
Cc1cccc(-n2ncc3cnc(NC(=O)[C@@H](N)CO)cc32)c1 [Compound 44, (S)-2-amino-3-hydroxy-N-(1-(m-tolyl)-1H-pyrazolo[4,3-c]pyridin-6-yl)propanamide hydrochloride]	15 µM
Cc1cccc(-n2nnc3ccc(NC(=O)[C@@H](N)CO)cc32)c1 [Compound 40, (S)-2-amino-3-hydroxy-N-(1-(m-tolyl)-1H-benzo[d][1,2,3]triazol-6-yl)propanamide hydrochloride]	0.14 µM
Cc1cccc(-n2ncc3c(F)cc(NC(=O)[C@H]4NCC[C@@H]4O)cc32)c1 [Compound 19, (2S,3S)-N-(4-fluoro-1-(m-tolyl)-1H-indazol-6-yl)-3-hydroxypyrrolidine-2-carboxamide hydrochloride]	0.52 µM
Cc1cccc(-n2ncc3ccc(NC(=O)C(CN)C(C)C)cc32)c1 (centres unmarked) [Compound 8, 2-(aminomethyl)-3-methyl-N-(1-(m-tolyl)-1H-indazol-6-yl)butanamide hydrochloride]	4.9 µM
CC(=O)OC[C@H](N)C(=O)Nc1ccc2cnn(-c3cccc(C)c3)c2c1 [Compound 41, (S)-2-amino-3-oxo-3-((1-(m-tolyl)-1H-indazol-6-yl)amino)propyl acetate hydrochloride]	2.7 µM
Cc1cccc(-n2ncc3ccc(NC(=O)[C@@H](N)C(C)(C)O)cc32)c1 [Compound 21, (S)-2-amino-3-hydroxy-3-methyl-N-(1-(m-tolyl)-1H-indazol-6-yl]butanamide hydrochloride]	3.6 µM
Cc1cccc(-n2ncc3ccc(NC(=O)[C@H](N)CO)cc32)c1 [Compound 2, (R)-2-amino-3-hydroxy-N-(1-(m-tolyl)-1H-indazol-6-yl)propanamide hydrochloride]	0.12 µM
Cc1cccc(-n2ncc3ccc(NC(=O)[C@H](N)CCO)cc32)c1 [Compound 12, (R)-2-amino-4-hydroxy-N-(1-(m-tolyl)-1H-indazol-6-yl)butanamide hydrochloride]	0.86 µM
CCCCCCCC(=O)OC[C@H](N)C(=O)Nc1cc(F)c2cnn(-c3cccc(C)c3)c2c1 [Compound 26, (S)-2-amino-3-((4-fluoro-1-(m-tolyl)-1H-indazol-6-yl)amino)-3-oxopropyl octanoate hydrochloride]	8 µM
CCOC(=O)N[C@@H](COC(C)=O)C(=O)Nc1ccc2cnn(-c3cccc(C)c3)c2c1 [Compound 30, (S)-2-((ethyloxycarbonyl)amino)-3-oxo-3-((1-(m-tolyl)-1H-indazol-6-yl)amino)propyl acetate]	24 µM
CCc1nn(-c2cccc(C)c2)c2cc(NC(=O)[C@@H](N)CO)ccc12 [Compound 43, (S)-2-amino-N-(3-ethyl-1-(m-tolyl)-1H-indazol-6-yl)-3-hydroxypropanamide hydrochloride]	1.86 µM
Cc1cccc(-n2ncc3ccc(NC(=O)[C@@H](N)CO)cc32)c1 [Compound 3, (S)-2-amino-3-hydroxy-N-(1-(m-tolyl)-1H-indazol-6-yl)propanamide hydrochloride]	0.04 µM
Cc1cccc(-n2ncc3ccc(NC(=O)[C@@H](C)N)cc32)c1 [Compound 7, (R)-2-amino-N-(1-(m-tolyl)-1H-indazol-6-yl)propanamide hydrochloride]	0.27 µM

Compound	IC50
CCCCCCCC(=O)OC[C@H](N)C(=O)Nc1ccc2cnn(-c3cccc(C)c3)c2c1 [Compound 24, (S)-2-amino-3-oxo-3-((1-(m-tolyl)-1H-indazol-6-yl)amino)propyl octanoate hydrochloride]	12 µM
Cc1cccc(-n2ncc3c(F)cc(NC(=O)[C@@H](N)CO)cc32)c1 [Compound 23, (S)-2-amino-N-(4-fluoro-1-(m-tolyl)-1H-indazol-6-yl)-3-hydroxypropanamide hydrochloride]	0.024 µM
Cc1cccc(-n2ncc3ccc(NC(=O)[C@H](CO)NC(=O)OC(C)C)cc32)c1 [Compound 37, (S)-isopropyl (3-hydroxy-1-oxo-1-((1-(m-tolyl)-1H-indazol-6-yl)amino)propan-2-yl)carbamate]	4 µM
Cc1cccc(-n2ncc3ccc(NC(=O)[C@H](COC(=O)c4cccnc4)NC(=O)OC(C)C)cc32)c1 [Compound 33, (S)-2-((isopropoxycarbonyl)amino)-3-oxo-3-((1-(m-tolyl)-1H-indazol-6-yl)amino)propyl nicotinate]	> 1000 µM
CCOC(=O)N[C@@H](CO)C(=O)Nc1ccc2cnn(-c3cccc(C)c3)c2c1 [Compound 36, (S)-ethyl (3-hydroxy-1-oxo-1-((1-(m-tolyl)-1H indazol-6-yl)amino)propan-2-yl)carbamate]	0.4 µM
Cc1cccc(-n2ncc3ccc(NC(=O)[C@H](CN)CO)cc32)c1 [Compound 4, (R)-3-amino-2-(hydroxymethyl)-N-(1-(m-tolyl)-1H-indazol-6-yl)propanamide hydrochloride]	0.62 µM
Cc1cccc(-n2ncc3ccc(NC(=O)[C@H]4NCC[C@@H]4O)cc32)c1 [Compound 18, (2S,3S)-3-hydroxy-N-(1-(m-tolyl)-1H-indazol-6-yl)pyrrolidine-2-carboxamide hydrochloride]	0.7 µM
Cc1cccc(-n2ncc3ccc(NC(=O)[C@@H](N)COC(=O)c4cccnc4)cc32)c1 [Compound 25, (S)-2-amino-3-oxo-3-((1-(m-tolyl)-1H-indazol-6-yl)amino)propyl nicotinate hydrochloride]	> 1000 µM
CC(=O)OC[C@H](NC(=O)OC(C)C)C(=O)Nc1ccc2cnn(-c3cccc(C)c3)c2c1 [Compound 31, (S)-2-((isopropoxycarbonyl)amino)-3-oxo-3-((1-(m-tolyl)-1H-indazol-6-yl)amino)propyl acetate]	30 µM
CCOC(=O)N[C@@H](COC(=O)c1cccnc1)C(=O)Nc1ccc2cnn(-c3cccc(C)c3)c2c1 [Compound 32, (S)-2-((ethyloxycarbonyl)amino)-3-oxo-3-((1-(m-tolyl)-1H-indazol-6-yl)amino)propyl nicotinate]	> 1000 µM
Cc1cccc(-n2ncc3ccc(NC(=O)[C@H]4CC[C@@H]4N)cc32)c1 (relative stereo) [Compound 9, trans-2-amino-N-(1-(m-tolyl)-1H-indazol-6-yl)cyclobutanecarboxamide hydrochloride]	0.67 µM
Cc1cccc(-n2ncc3ccc(NC(=O)[C@@H](N)CN)cc32)c1 [Compound 15, (S)-2,3-diamino-N-(1-(m-tolyl)-1H-indazol-6-yl)propanamide dihydrochloride]	0.63 µM
Cc1cccc(-n2ncc3ccc(NC(=O)C(N)CO)cc32)c1 (centres unmarked) [Compound 1, 2-amino-3-hydroxy-N-(1-(m-tolyl)-1H-indazol-6-yl)propanamide hydrochloride]	0.12 µM
Cc1cccc(-n2ncc3ccc(NC(=O)C(N)C(N)=O)cc32)c1 (centres unmarked) [Compound 38, 2-amino-N1-(1-(m-tolyl)-1H-indazol-6-yl)malonamide hydrochloride]	1.4 µM
CCCCCCCC(=O)OC[C@H](NC(=O)OC(C)C)C(=O)Nc1ccc2cnn(-c3cccc(C)c3)c2c1 [Compound 35, (S)-2-((isoproxycarbonyl)amino)-3-oxo-3-((1-(m-tolyl)-1H-indazol-6-yl)amino)propyl octanoate]	200 µM
Cc1cccc(-n2ncc3ccc(NC(=O)C[C@H](N)CO)cc32)c1 [Compound 11, (S)-3-amino-4-hydroxy-N-(1-(m-tolyl)-1H-indazol-6-yl)butanamide hydrochloride]	1.2 µM

— US20220194939A1, “Novel compounds and methods of use treating fructose-related disorders or diseases” (Colorado Research Partners, LLC, priority 2019, published 2022)
